Biological target: Transforming acidic coiled-coil-containing protein 3 (Homo sapiens) (UniProt Q9Y6A5)
Assay: ARNT/TACC3 interaction disruptors, potency, confirmation, biochemical, AlphaScreen, cherry-picked samples (AID 651703);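 further: TACC3 partner is the GST-tagged E629A mutant dimer; hits lower the signal meaning they disrupt ARNT binding to TACC3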
Settings: AlphaScreen His-ARNT PAS-B / GST-TACC3 binding, luminescence

Row | AC50 | SMILES
1 | 35.4 µM | O=C(CSc1ccc2nnc(-c3ccccn3)n2n1)Nc1ccc(F)cc1F
2 | 2.86 µM | CCc1cc2c(=O)[nH]c(-c3ccccn3)nc2s1
3 | 11.3 µM | Cc1ncc(CO)c(/C=N/NC(=O)c2cc3c(s2)CCCC3)c1O
4 | 19.1 µM | O=S(=O)(N[C@H]1CC[C@@H](CCn2cc(-c3ccccn3)nn2)O[C@H]1CO)c1cccc(F)c1
5 | 10.2 µM | O=C(N[C@@H]1CC[C@@H](CCn2cc(-c3ccccn3)nn2)O[C@H]1CO)c1ccc(F)cc1
6 | 6.45 µM | O=C(Nc1nc(-c2ccccn2)cs1)C12CC3CC(CC(O)(C3)C1)C2
7 | 47.8 µM | C/C=C/c1ccc([C@@H]2[C@H](CO)N(Cc3ccccn3)[C@H]2CNC(C)=O)cc1
8 | 0.659 µM | c1ccc(-c2cn(C[C@H]3CC[C@@H]([C@@H]4CC[C@H](Cn5cc(-c6ccccn6)nn5)O4)O3)nn2)nc1
9 | 27.7 µM | N#Cc1ccc(C(=O)Nc2nnc(-c3ccco3)o2)cc1
10 | 11.8 µM | O=C(N[C@@H]1CC[C@@H](CCn2cc(-c3ccccn3)nn2)O[C@H]1CO)c1cccnc1
11 | 43.1 µM | C/C(=N\NC(=O)C(c1ccccc1)c1ccccc1)c1ccc(O)cc1
12 | 3.39 µM | Nc1nc(-c2ccccn2)nc(N)c1Cc1ccccc1F
13 | 33.2 µM | OCCN1CCN(C(=S)c2ccc(Cl)c(Cl)c2)CC1
14 | 21.5 µM | CC(C)(C)CCNC(=O)c1cc(-c2ccccc2)on1
15 | 9.17 µM | CCCCCOc1ccc(NC(=O)CSc2cccc3cccnc23)cc1
16 | 51 µM | O=C(NC12CC3CC(CC(C3)C1)C2)c1ccc(-c2ccccc2Cl)o1
17 | 49.7 µM | O=C(CSc1ccc2nnc(-c3ccccn3)n2n1)NCC1CCCO1 (centres undefined)
18 | 24.9 µM | COc1ccc(C(=O)Nc2nnc(C3=COCCO3)o2)cc1
19 | 15.5 µM | O=C(Nc1nc(-c2ccccn2)cs1)C1CCCC1
20 | 65.8 µM | O=C(CN1CCCCCCC1)N/N=C/c1ccc(F)c(F)c1
21 | 2.64 µM | O=C(CSc1ccc(-c2ccccn2)nn1)NC1CCCC1
22 | 13.4 µM | O=C(N/N=C/c1cc(Br)ccc1O)C(c1ccncc1)N1CCOCC1 (centres undefined)
23 | 53.5 µM | Cc1ccccc1Nc1nc(N)nc(CN(C)Cc2ccccc2Cl)n1

Row | AC50 | SMILES
24 | 64.9 µM | c1ccc(C2=Nn3c(nnc3-c3ccccn3)SC2)cc1
25 | 15.2 µM | O=C(Oc1c(CN2CCOCC2)cc(Cl)c2cccnc12)c1cccs1
26 | 5.8 µM | C=CCSc1nnc(-c2cccc3ccccc23)o1
27 | 25.1 µM | C=CCn1c(CNc2ccccc2)nnc1SCC(=O)N/N=C/c1ccc(O)cc1O
28 | 34.9 µM | O=C(COc1nsnc1N1CCOCC1)N/N=C/c1ccccc1O
29 | < 0.5 µM | c1ccc(-c2cn(C[C@H]3CC[C@H](Cn4cc(-c5ccccn5)nn4)O3)nn2)nc1
30 | 15.8 µM | CC(C)(C)c1ccc(OCCNC(=O)c2ncn[nH]2)cc1
31 | 3.12 µM | O=C(O)c1ccc(C2CCCCC2)cn1
32 | 20 µM | Cc1ccc(C)c(-n2c(SCC(N)=O)nnc2-c2ccccn2)c1
33 | 29.8 µM | CCOC(=O)C(NCc1ccccn1)(NC(=O)c1cccnc1)C(F)(F)F (centres undefined)
34 | 1.47 µM | CC(=O)NC(c1cc(Cl)c2cccnc2c1O)C(C)C (centres undefined)
35 | 7.57 µM | O=C(N[C@@H]1CC[C@H](CCn2cc(-c3ccccn3)nn2)O[C@H]1CO)c1ccncc1
36 | 14.4 µM | O=C(N[C@H]1CC[C@H](CCn2cc(-c3ccccn3)nn2)O[C@H]1CO)c1ccncc1
37 | 28.6 µM | COc1ccc(NC(=O)N[C@@H]2CC[C@@H](CCn3cc(-c4ccccn4)nn3)O[C@H]2CO)cc1
38 | < 0.5 µM | Cc1cccc(Nc2nc(-c3ccccn3)nnc2-c2ccccc2)n1
39 | 13.6 µM | O=Nc1ccc(O)c2ncccc12
40 | 0.625 µM | CC(C)(C)OC(=O)N1CCN(Cc2ccc(O)c3ncccc23)CC1
41 | 31.2 µM | Fc1ccc(-c2ccc(CNCc3ccccn3)o2)cc1
42 | 3.28 µM | O=C(CSc1cccc2cccnc12)N1CCCC1
43 | 4.03 µM | CCN1CCN(C(c2cccnc2)c2cc(Cl)c3cccnc3c2O)CC1 (centres undefined)
44 | 9.23 µM | O=C(N[C@@H]1CC[C@@H](CCn2cc(-c3ccccn3)nn2)O[C@H]1CO)c1ccccc1
45 | 1.05 µM | Clc1cccc(CNc2nc(-c3ccccn3)nnc2-c2ccccc2)c1
46 | < 0.5 µM | C=CCNc1nc(-c2ccccn2)nnc1-c1ccccc1

Row | AC50 | SMILES
47 | 21.6 µM | CCOc1cccc(/C=N/NC(=O)c2cccnc2)c1O
48 | 3 µM | O=C(NCCCn1ccnc1)C(=O)NCC1OCCN1S(=O)(=O)c1cc(F)ccc1F (centres undefined)
49 | 64.9 µM | C[C@@H]1CN([C@H](C)CO)C(=O)c2cc(NC(=O)Nc3ccc(C(F)(F)F)cc3)ccc2O[C@@H](C)CCCCO[C@H]1CN(C)Cc1ccc2c(c1)OCO2
50 | 21.5 µM | O=S(=O)(N[C@@H]1CC[C@@H](CCn2cc(-c3ccccn3)nn2)O[C@H]1CO)c1cccc(F)c1
51 | 27.7 µM | O=C(c1ccccn1)N1CC[C@@H]2[C@H]1c1cc(Br)ccc1N[C@@H]2CO
52 | 1.96 µM | O=C(CSc1ccc(-c2ccccn2)nn1)Nc1ccccc1
53 | 0.77 µM | C[C@@H](Nc1nc(-c2ccccn2)nnc1-c1ccccc1)c1ccccc1
54 | 18.8 µM | COc1cccc(/C=N/NC(=O)C(=O)N2CCCCCC2)c1O
55 | 52.5 µM | COc1ccc(C2c3ccc(O)cc3Oc3ncn4nc(-c5ccccn5)nc4c32)cc1OC (centres undefined)
56 | 10.7 µM | O=S(=O)(N[C@H]1CC[C@H](CCn2cc(-c3ccccn3)nn2)O[C@@H]1CO)c1cccc(F)c1
57 | 15.8 µM | O=C(Nc1nnc(-c2ccccc2Cl)o1)c1cccnc1
58 | 0.895 µM | c1ccc(CSc2ccc(-c3ccccn3)nn2)nc1
59 | 14.4 µM | Cc1ccsc1C(=O)OCC(=O)Nc1nnc(-c2ccccc2)o1
60 | 64.8 µM | COc1cccc(/C=N/NC(=O)CNC(=O)c2ccncc2)c1O
61 | 65.8 µM | Nc1nc(CN2CCN(Cc3ccccc3)CC2)nc(Nc2ccc3c(c2)OCCO3)n1
62 | 23.3 µM | O=S(=O)(Nc1cccc2cccnc12)c1ccc(S(=O)(=O)N2CCCC2)cc1
63 | 1.45 µM | Cc1ccc(-n2c(-c3ccc(Br)cc3)c[n+]3c2CCc2ccc4cccnc4c2-3)cc1
64 | 54.8 µM | Oc1ccc(Cl)cc1CNc1cccc2cccnc12
65 | 59.6 µM | O=C(NC[C@@H]1[C@H](c2ccccc2)[C@H](CO)N1Cc1ccccn1)C1CC1
66 | 21.8 µM | Cc1cccc(NC(=O)CSc2cccc3cccnc23)c1
67 | 10.9 µM | O=C(CSc1cccc2cccnc12)Nc1ccc(S(=O)(=O)N2CCOCC2)cc1
68 | 8.57 µM | CCC(C)Nc1nc(-c2ccccn2)nc2ccccc12 (centres undefined)
69 | 36.1 µM | O=C(Nc1nnc(-c2ccco2)o1)c1ccc(S(=O)(=O)N2CCOCC2)cc1

Row | AC50 | SMILES
70 | 0.53 µM | C[C@H](Nc1nc(-c2ccccn2)nnc1-c1ccccc1)C1CCCCC1
71 | 12.9 µM | O=C(Nc1nc(NC(=O)c2ccco2)n(-c2ccccc2)n1)c1ccccc1
72 | 42 µM | COc1cc(/C=N/NC(=O)c2cncc(Br)c2)cc([N+](=O)[O-])c1O
73 | 1.77 µM | CN1CCN(c2cc(-c3cc(O)c4ncccc4c3)ccn2)CC1
74 | 13.8 µM | O=C(O)c1ncn(Cc2ccccc2)c1C(=O)O
75 | 9.48 µM | COc1ccccc1CNC(=O)CSc1ccc(-c2ccccn2)nn1
76 | 22 µM | O=S(=O)(N[C@@H]1CC[C@H](CCn2cc(-c3ccccn3)nn2)O[C@H]1CO)c1cccc(Cl)c1
77 | 4.77 µM | O=C(N/N=C/c1cccc2nccnc12)c1ccccc1O
78 | 1.6 µM | c1ccc(-c2ccc(CNc3nc(-c4ccccn4)nnc3-c3ccccc3)cc2)cc1
79 | 21.5 µM | N/C(=N\OC(=O)Cc1ccc([N+](=O)[O-])cc1)c1ccccn1
80 | 7.86 µM | O=c1[nH]c(-c2ccccn2)nc2ccccc12
81 | 5.32 µM | O=C(CSc1ccc(-c2ccccn2)nn1)N1CCCc2ccccc21
82 | 59 µM | Nc1nc(CN2CCCCCC2)nc(Nc2ccccc2)n1
83 | 15.2 µM | O=S(=O)(NC1CCN(Cc2ccc(OCCO)cc2)CC1)c1cccc2cccnc12
84 | 23.1 µM | O=C(N[C@H]1CC[C@H](CCn2cc(-c3ccccn3)nn2)O[C@@H]1CO)c1ccc(F)cc1
85 | 68.6 µM | COc1ccc(Nc2cc3n(c(=O)n2)CCc2cc(OC)c(OC)cc2-3)cc1
86 | 46.9 µM | CC1OC(CC(=O)O)CC2=C1C(=O)c1c(O)cccc1C2=O (centres undefined)
87 | 13.2 µM | CC(Oc1ccccc1)C(=O)Nc1nc(-c2ccccn2)cs1 (centres undefined)
88 | 70 µM | C[C@@H]1CN([C@H](C)CO)S(=O)(=O)c2ccc(C3=CCCC3)cc2O[C@H]1CN(C)Cc1ccccn1
89 | 56.9 µM | CCOC(=O)c1c(OCC)[nH]c2c1cc(O)c1ccccc12
90 | 0.771 µM | Oc1cc(-c2ccncc2)cc2cccnc12
91 | 17.4 µM | CC(C)(C)C(=O)Nc1ccccc1C(=O)NCCCn1ccnc1
92 | 8.7 µM | CC(Oc1ccc(F)cc1)C(=O)Nc1nc(-c2ccccn2)cs1 (centres undefined)

Row | AC50 | SMILES
93 | 3.15 µM | C/C(=N\NC(=O)c1cccc2ccccc12)c1ccccn1
94 | 32.8 µM | COC(=O)c1ccc(C(=O)O)nc1
95 | 9.53 µM | O=C(N[C@H]1CC[C@@H](CCn2cc(-c3ccccn3)nn2)O[C@H]1CO)c1ccncc1
96 | 15.4 µM | CCC1CCCCN1S(=O)(=O)c1ccc(NC(=O)CSc2ncccc2C(=O)O)cc1 (centres undefined)
97 | < 0.5 µM | CN1CCN(c2nc(-c3ccccn3)nnc2-c2ccccc2)CC1
98 | 30.2 µM | O=C(Nc1nnc(-c2ccccn2)o1)c1cccc(Cl)c1
99 | 19.6 µM | O=C(COc1ccc(Cl)cc1)Nc1nnc(-c2ccco2)o1
100 | 11.6 µM | c1ccc(-c2n[nH]c(-c3ccccn3)n2)cc1
101 | 4.63 µM | Nc1nnc2c(n1)CCCC2
102 | 40.6 µM | O=C(O)c1cn[nH]c1-n1cnnn1
103 | 48.4 µM | O=C(Nc1nnc(-c2cccs2)o1)c1ccco1
104 | 2.14 µM | Oc1cccc2c(-c3nn[nH]n3)ccnc12
105 | 25.1 µM | COc1ccc(/C=N/Nc2nncn2N)cc1Br
106 | 14.9 µM | O=C(O)CCNc1cc(N2CCN(C(=O)c3ccco3)CC2)c2noc3c2c1C(=O)c1ccccc1-3
107 | < 0.5 µM | c1ccc(-c2nnc(-c3ccccn3)nc2Nc2cnc3ccccc3n2)cc1
108 | 4.04 µM | O=C(Cn1cncn1)N/N=C/c1cc([N+](=O)[O-])ccc1O
109 | 19.2 µM | O=S(=O)(N[C@H]1CC[C@H](CCn2cc(-c3ccccn3)nn2)O[C@@H]1CO)c1cccc(Cl)c1
110 | 36.3 µM | Cc1cc([N+](=O)[O-])cc(/C=N\NC(=O)C2COc3ccccc3O2)c1O (centres undefined)
111 | < 0.5 µM | c1ccc(-c2nnc(-c3ccccn3)nc2N2CCC(N3CCOCC3)CC2)cc1
112 | 0.756 µM | Cc1cccnc1Nc1nc(-c2ccccn2)cs1
113 | 19.5 µM | O=C(CSc1cccc2cccnc12)Nc1ccccc1F

Row | SMILES | AC50
114 | Oc1ccc(CN2CCC3CCCCC3C2)c2cccnc12 (centres undefined) | 1.22 µM

From PubChem BioAssay AID651703 (Broad Institute, 2012)
